Holding throughout (assay type): in vivo
For assay [1], the system named is Cotton Aphid (aphis gossypii, Mixed Life Stages). Kind of assay: Cotton aphid (aphis gossypii, mixed life stages), cotyledon dip test. The conditions noted are these: 120 h, mortality counts after 5 days, in comparison with untreated controls. The text has this: (§1) The active compounds were formulated in 50:50 (vol:vol) acetone:water and 100 ppm Kinetica™ surfactant.
Cotton plants at the cotyledon stage (one plant per pot) were infested by placing a heavily infested leaf from the main colony on top of each cotyledon. The aphids were allowed to transfer to the host plant overnight, and the leaf used to transfer the aphids was removed. The cotyledons were dipped in the test solution and allowed to dry. After 5 days, mortality counts were made.

In assay [2] the test system is Green Peach Aphid (Myzus persicae, Mixed Life Stages). Kind of assay: Green peach aphid (Myzus persicae, mixed life stages), pepper leaf dip test. The conditions noted are these: foliar, 120 h, after 5 days, in comparison with untreated controls.
Excerpt: as §1
Pepper plants in the 2nd leaf-pair stage (variety ‘California Wonder’) were infested with approximately 40 laboratory-reared aphids by placing infested leaf sections on top of the test plants. The leaf sections were removed after 24 hr. The leaves of the intact plants were dipped into gradient solutions of the test compound and allowed to dry. Test plants were maintained under fluorescent light (24 hour photoperiod) at about 25° C. and 20-40% relative humidity. Aphid mortality on the treated plants, relative to mortality on check plants, was determined after 5 days.

The subject of assay [3] is Cowpea Aphid (aphis craccivora). Kind of assay: Cowpea aphid (aphis craccivora), spray on potted cowpea plants. Particulars: population reduction assessed after 24, 72 and 120 hours, in comparison with untreated controls. The protocol:
The active compounds were formulated in 50:50 (vol:vol) acetone:water. The test solution was prepared at the day of use.
Potted cowpea plants colonized with 100-150 aphids of various stages were sprayed after the pest population had been recorded. Population reduction was assessed after 24, 72, and 120 hours.

In assay [4] the test system is Vetch Aphid (Megoura viciae). Kind of assay: Vetch aphid (Megoura viciae), bean leaf disk microtiterplate test. The conditions noted are these: foliar, 144 h, concentration of the test solution 2500 mg/L, 6 days. The protocol:
The active compounds were formulated in 1:3 (vol:vol) DMSO:water with different concentrations of formulated compounds.
Bean leaf disks were placed into microtiterplates filled with 0.8% agar-agar and 2.5 ppm OPUS™. The leaf disks were sprayed with 2.5 μl of the test solution and 5 to 8 adult aphids were placed into the microtiterplates which were then closed and kept at 23±1° C. and 50±5% relative humidity under fluorescent light for 6 days. Mortality was assessed on the basis of vital, reproduced aphids. Aphid mortality and fecundity was then visually assessed.

The subject of assay [5] is Boll Weevil (Anthonomus grandis). As to the kind of experiment: Boll weevil (Anthonomus grandis), insect diet microtiter plate test. Particulars: 120 h, concentration of the test solution 2500 mg/L, egg and larval mortality after 5 days. The protocol:
The compounds were formulated in 75:25 (vol:vol) water:DMSO.
For evaluating control of boll weevil (Anthonomus grandis) the test unit consisted of 24-well-microtiter plates containing an insect diet and 20-30 A. grandis eggs. Different concentrations of formulated compounds were sprayed onto the insect diet at 20 μl, using a custom built micro atomizer, at two replications. After application, the microtiter plates were incubated at 23±1° C. and 50±5% relative humidity for 5 days. Egg and larval mortality was then visually assessed.

In assay [6] the test system is Southern Armyworm (spodoptera eridania, 2nd instar larvae). As to the kind of experiment: Southern armyworm (spodoptera eridania, 2nd instar larvae), lima bean leaf dip test. Particulars: foliar, 96 h, at 4 days, in comparison with untreated controls. As for the experimental part: as §1
A pair of first true leaves of Sieva lima bean was dipped in the test solution and allowed to dry. The leaf was then placed in a plastic perforated zip enclosure bag and ten 2nd instar larvae were added. At 4 days, observations were made of mortality and reduced feeding.

Drawing on patent publication US8642597B2, “Pyrazole compounds for controlling invertebrate pests” (BASF SE, priority 2007, dated 2014), this text covers mortality for 29 compounds.

Some results are limits rather than exact numbers.

On to `CCS/C(=N\c1cccnc1)c1cn(C)nc1C(F)(F)F` [Compound 243], for which the mortality at 300 ppm was at least 75% in assay [1], at least 50% in assay [2] and at least 75% in assay [3]. Moreover, the mortality at 2500 µg/mL in assay [4] was at least 80%; in assay [5], 100%.
In the case of `Cc1ccc(-n2ncc(C(=O)Nc3cccnc3)c2C(F)F)cc1` [Compound 138], the mortality at 300 ppm in assay [1] is at least 75%; in assay [2] it was at least 50%; in assay [3], at least 75%. Besides, the mortality at 2500 µg/mL was at least 80% in assay [4] and 100% in assay [5].
Take `Cc1nn(C(F)F)cc1C(=O)Nc1cccnc1` [Compound 209]: the mortality at 300 ppm in assay [1] was at least 75%; in assay [2], at least 50%; in assay [3] it was at least 75%; in assay [6] it was at least 50%.
Turning to `O=C(Nc1cccnc1)c1cnn(C(F)F)c1` [Compound 213], the mortality at 300 ppm in assay [1] is at least 75%; in assay [2] it was at least 50%; in assay [3], at least 75%; in assay [6] it was at least 50%.
As to `O=C(Nc1cccnc1)c1cnn(-c2ccc(F)cc2)c1C(F)(F)F` [Compound 228], the mortality at 300 ppm was at least 75% in assay [1], at least 50% in assay [2] and at least 50% in assay [6]. In assay [4], this compound gave a mortality at 2500 µg/mL of at least 80%.
`Cn1nc(C(F)(F)F)c(C(=O)Nc2cccnc2)c1F` [Compound 78] registered a mortality at 300 ppm in assay [6] of at least 50%.
For the compound `O=C(Nc1cccnc1)c1cnn(C(F)F)c1C(F)(F)F` [Compound 190], the mortality at 300 ppm in assay [1] is at least 75%; in assay [2], at least 50%; in assay [3], at least 75%. For the same compound, the mortality at 2500 µg/mL is at least 80% in assay [4] and 100% in assay [5].
For `CCn1ncc(C(=O)N(C)c2cccnc2)c1C(F)(F)F` [Compound 186], the mortality at 300 ppm is at least 75% in assay [1], at least 50% in assay [2] and at least 75% in assay [3]. Moreover, the mortality at 2500 µg/mL is at least 80% in assay [4] and 100% in assay [5].
With `Cc1c(C(=O)N(C)c2cccnc2)cnn1C(F)F` [Compound 220], the mortality at 300 ppm in assay [1] is at least 75%; in assay [2], at least 50%; in assay [3] it was at least 75%; in assay [6] it was at least 50%. For the same compound, the mortality at 2500 µg/mL in assay [4] is at least 80%; in assay [5], 100%.
As for `Cn1cc(C(=O)Nc2cccnc2)c(OC(F)F)n1` [Compound 110], the values for the mortality at 300 ppm in assay [1], in assay [2] and in assay [3] were at least 75%, at least 50% and at least 75%, respectively. Besides, the mortality at 2500 µg/mL in assay [4] was at least 80%; in assay [5], 100%.
In the case of `CN(C(=O)c1cnn(C(F)F)c1C(F)(F)F)c1cccnc1` [Compound 191], the figures for the mortality at 300 ppm in assay [1], in assay [3] and in assay [6] were at least 75%, at least 75% and at least 50%, respectively. Besides, the mortality at 2500 µg/mL in assay [4] was at least 80%; in assay [5], 100%.
As to `Cc1ccccc1-n1ncc(C(=O)Nc2cccnc2)c1C(F)F` [Compound 156], the mortality at 300 ppm was at least 75% in assay [1], at least 50% in assay [2] and at least 75% in assay [3]. The mortality at 2500 µg/mL in assay [4] is at least 80%; in assay [5] it was 100%.
Regarding `O=C(Nc1cccnc1)c1cnn(-c2ccc([N+](=O)[O-])cc2)c1C(F)(F)F` [Compound 199], the mortality at 300 ppm was at least 75% in assay [1], at least 50% in assay [2], at least 75% in assay [3] and at least 50% in assay [6].
In the case of `Cn1cc(C(=O)Nc2cccnc2)c(C(F)(F)F)n1` [Compound 196], the mortality at 300 ppm in assay [1] is at least 75%; in assay [2], at least 50%; in assay [3], at least 75%; in assay [6] it was at least 50%.
As to `Cn1cc(C(=O)Nc2cccnc2)cn1` [Compound 107], the mortality at 300 ppm in assay [1] is at least 75%; in assay [2], at least 50%; in assay [3], at least 75%. For the same compound, the mortality at 2500 µg/mL in assay [4] is at least 80%; in assay [5], 100%.
For the compound `Cc1c(C(=O)Nc2cccnc2)cnn1C` [Compound 179], the mortality at 300 ppm in assay [1] is at least 75%; in assay [2] it was at least 50%; in assay [3] it was at least 75%; in assay [6], at least 50%.
For the compound `CN(C(=O)c1cnn(C(F)(F)F)c1)c1cccnc1` [Compound 233], the mortality at 300 ppm in assay [1] was at least 75%; in assay [2], at least 50%; in assay [6], at least 50%.
Consider `CCCn1cc(C(=O)Nc2cccnc2)cn1` [Compound 108], for which the results for the mortality at 300 ppm in assay [1], in assay [2] and in assay [3] were at least 75%, at least 50% and at least 75%, respectively. The mortality at 2500 µg/mL in assay [4] was at least 80%; in assay [5], 100%.
For the compound `O=C(Nc1cccnc1)c1cnn(-c2ccccc2Cl)c1C(F)F` [Compound 148], the mortality at 300 ppm is at least 75% in assay [1], at least 50% in assay [2] and at least 75% in assay [3]. Further, the mortality at 2500 µg/mL was at least 80% in assay [4] and 100% in assay [5].
Regarding `Cc1cccc(-n2ncc(C(=O)Nc3cccnc3)c2C(F)F)c1` [Compound 158], the mortality at 300 ppm was at least 75% in assay [1], at least 50% in assay [2], at least 75% in assay [3] and at least 50% in assay [6]. In assay [4], this compound had a mortality at 2500 µg/mL of at least 80%.
As to `O=C(Nc1cccnc1)c1cn(C(F)F)nc1C(F)F` [Compound 194], the mortality at 300 ppm is at least 75% in assay [1], at least 50% in assay [2] and at least 75% in assay [3]. Moreover, the mortality at 2500 µg/mL is at least 80% in assay [4] and 100% in assay [5].
For the compound `Cn1cc(C(=O)Nc2cccnc2)c(C(F)F)n1` [Compound 170], the mortality at 300 ppm is at least 75% in assay [1], at least 50% in assay [2], at least 75% in assay [3] and at least 50% in assay [6].
Turning to `CC(C)Cn1cc(C(=O)Nc2cccnc2)cn1` [Compound 98], the mortality at 300 ppm in assay [1] was at least 75%; in assay [2], at least 50%; in assay [3], at least 75%; in assay [6] it was at least 50%. In addition, the mortality at 2500 µg/mL in assay [4] was at least 80%.
Take `CN(C(=O)c1cnn(C)c1C(F)(F)F)c1cccnc1` [Compound 174]: the mortality at 300 ppm in assay [1] was at least 75%; in assay [2], at least 50%; in assay [3], at least 75%; in assay [6], at least 50%.
`CCc1c(C(=O)N(C)c2cccnc2)cnn1CC` [Compound 185]: the mortality at 300 ppm in assay [1] was at least 75%; in assay [2], at least 50%; in assay [3], at least 75%. The values for the mortality at 2500 µg/mL in assay [4] and in assay [5] were at least 80% and 100%, respectively.
`O=C(Nc1cccnc1)c1cn[nH]c1` [Compound 87]: the mortality at 300 ppm in assay [1] was at least 75%; in assay [2], at least 50%; in assay [3] it was at least 75%. Further, the mortality at 2500 µg/mL is at least 80% in assay [4] and 100% in assay [5].
In the case of `COc1ccccc1-n1ncc(C(=O)Nc2cccnc2)c1C(F)F` [Compound 150], the mortality at 300 ppm is at least 75% in assay [1] and at least 50% in assay [2]. Moreover, the mortality at 2500 µg/mL in assay [4] was at least 80%; in assay [5], 100%.
Turning to `O=C(Nc1cccnc1)c1cnn(-c2cccc(Cl)c2)c1C(F)F` [Compound 157], the mortality at 300 ppm in assay [1] was at least 75%; in assay [2], at least 50%; in assay [3] it was at least 75%; in assay [6], at least 50%. For the same compound, the figures for the mortality at 2500 µg/mL in assay [4] and in assay [5] were at least 80% and 100%, respectively.
Take `Cn1ncc(C(=O)Nc2cccnc2)c1C(F)F` [Compound 167]: the mortality at 300 ppm in assay [1] is at least 75%; in assay [2] it was at least 50%; in assay [3], at least 75%. Further, the figures for the mortality at 2500 µg/mL in assay [4] and in assay [5] were at least 80% and 100%, respectively.
